The nature of the data set: Biosimilar mucus-permeating assay, in vitro cell-free model. It counts as in vitro ADME. The following applies: peptide 1 mM, OPA method; for Mucus permeability (in words): cell-free biosimilar mucus model, PBS pH 7.2, 25 ℃, verbal grade; for Final cumulative mucus permeability at 240 min / Cumulative mucus permeability at 60 min: cell-free, biosimilar mucus (0.3% PAA, 5% mucin, 3.1% BSA, 0.6% lipid mixture, Tween 80) on 10 KDa centrifugal filter, 1 mL, PBS pH 7.2, 470× g, 25 ℃, mean ± SEM, at least three times in triplicate. Here is the method: An in vitro cell-free model was established in this study for the quantification of mucus-permeating property of peptides. Biosimilar mucus used in the model consisted of 0.3% (w/v) PAA, 5% (w/v) mucin, 3.1% (w/v) BSA, 0.6% (w/v) lipid mixture including 0.06% (w/v) linoleic acid, 0.36% (w/v) cholesterol, 0.18% (w/v) phosphatidylcholine, and Tween 80 (25% of lipid mixture, w/w). First, the lipid was mixed with Tween 80, whereafter PBS buffer with 150 mM NaCl (5 mM, pH 7.2) was slowly added under magnetic stirring (Cimarec, ThermoFisher Scientific, Waltham, MA USA). On the other hand, PAA was dissolved in PBS buffer prior to the addition of mucin under stirring, and pH adjusted to 7.0 using NaOH (1 M). After mixing the lipids and mucin suspension, BSA was added to finalize the biosimilar mucus and the pH was adjusted to 7.4. The mucus mixture was stored overnight at 4 ℃ before dialyzing (Fisherbrand Regenerated Cellulose Dialysis Tubing, MWCOs from 3500 to 14,000 Daltons) for 72 h against PBS buffer (5 mM, pH 7.2) containing 150 mM NaCl to remove unbound lipids and contaminating proteins from BSA. Mucus-permeating assay was conducted by firstly adding 3.8 mL of dialyzed mucus suspensions to the filter of the centrifugal unit (4 mL, 10 KDa cutoff, Amicon Ultra, Millipore Sigma) followed by centrifugation at 2935× g for 15 min to make the mucus settle down and completely cover the entire membrane before adding peptide solutions (1 mM, 1 mL) or 1 mL of PBS buffer as blank. Afterwards, the permeate during centrifugation at 25 ℃ and 470× g was collected every 15 min for 4 h. The peptide content in the permeate was measured using the OPA method. The mucus permeability of the peptides was quantified using Equation (2). (2) P=np−nb/nT×100 PP is the percentage permeability, np represents the permeated peptides (µmol), nb is the blank (µmol), and nT is the total loaded peptide amount (µmol).

Where a SMILES comes first, the peptide text is derived from it. Where no end group is shown, it is not given here.

Take `CSCC[C@H](NC(=O)[C@@H](N)Cc1ccc(O)cc1)C(=O)N[C@@H](CO)C(=O)N[C@H](C(=O)O)C(C)C` [Pep3, YMSV] (H-YMSV-OH): the “Mucus permeability (in words)” value is listed as “low mucus permeability” and the “Final cumulative mucus permeability at 240 min” value stood at 44 ± 12%.
On the same counts, the results for `CSCC[C@H](NC(=O)[C@@H](N)CCCCN)C(=O)N1CCC[C@H]1C(=O)N[C@H](C(=O)O)C(C)C` [Pep5, KMPV] (H-KMPV-OH) are “low mucus permeability” and 13 ± 2%.
Consider KIPAVF [Pep1, KIPAVF], for which the “Mucus permeability (in words)” value is given as “low mucus permeability” and the “Final cumulative mucus permeability at 240 min” value is 23 ± 6%.
For the molecule `CC(C)C[C@H](NC(=O)[C@H](CO)NC(=O)[C@H](C)NC(=O)[C@@H]1CCCN1)C(=O)O` [Pep6, PASL] (H-PASL-OH), the “Mucus permeability (in words)” value was “high mucus permeability”, the “Cumulative mucus permeability at 60 min” value is listed as 40 ± 17% and the “Final cumulative mucus permeability at 240 min” value stood at 92 ± 27%.
QIGLF [Pep7, QIGLF]: the “Mucus permeability (in words)” value was “low mucus permeability” and the “Final cumulative mucus permeability at 240 min” value was determined as 51 ± 9%.
In the case of `C[C@@H](O)[C@H](N)C(=O)N[C@@H](CC(N)=O)C(=O)NCC(=O)N[C@@H](CCC(N)=O)C(=O)O` [Pep4, TNGQ] (H-TNGQ-OH), the “Mucus permeability (in words)” value is “high mucus permeability”, the “Cumulative mucus permeability at 60 min” value was found to be 96 ± 30% and the “Final cumulative mucus permeability at 240 min” value is 142 ± 35%.
With `CSCC[C@H](N)C(=O)N[C@@H](C)C(=O)N[C@@H](CC(N)=O)C(=O)N[C@H](C(=O)O)[C@@H](C)O` [Pep2, MANT] (H-MANT-OH), the “Mucus permeability (in words)” value was “low mucus permeability” and the “Final cumulative mucus permeability at 240 min” value is 21 ± 5%.

These data come from PMC8774657, “Peptide-Mucin Binding and Biosimilar Mucus-Permeating Properties” (Gels, 2021).
